Patent publication US20120010241A1, “HSP90 INHIBITING INDAZOLE DERIVATIVES, COMPOSITIONS CONTAINING SAME AND USE THEREOF” (SANOFI, priority 2009, published 2012)

Tests used:
[1] = system: Her2 expression in SKBr3 cells; assay: phenotypic SKBr3/HER2 cell test (Her2 expression at the cell surface, flow cytometry); type: cell-based; settings: Homo sapiens, SK-BR-3, incubation for 24 h, anti-Her2 antibody coupled to PE, FACS
Experimental: The cellular activity of the compounds can in particular be evaluated by means of the phenotypic “SKBr3/HER2” cell test described below:
The SKBr3 […] adenocarcinoma cells, overexpressing the Her2 tyrosine kinase receptor, originate from the ATCC (HTB-30) and are cultured in McCoy's 5A medium supplemented with 10% FBS and 1% L-glutamine.
The cells are seeded in 12-well plates at a proportion of 125 000 cells per well in 1 ml of complete medium. The following day, the products are added at varying concentrations. After incubation for 24 h, the cells are trypsinized, washed with PBS and incubated with 100 ng of anti-Her2 antibody coupled to PE (phycoerythrin) (BD 340552) for 30 minutes at 4° C. in the dark. The fluorescence due to the expression of the Her2 receptor at the surface of the cells is then read using a FACS Calibur flow cytometer (Becton-Dickinson). The percentage inhibition of Her2 expression as a function of the concentrations of product tested is fitted by the nonlinear regression technique (XLfit, equation 205) in order to measure the IC50 for each product.

Hsp82 = Hsp82 (Saccharomyces cerevisiae, UniProt P02829); assay: Hsp82/ATPase test (PK/LDH coupled spectrophotometric method; malachite green method also described); type: biochemical; settings: 1 μM Hsp82, 250 μM ATP, 37° C., absorbance at 340 nm
Hsp82, sequence (P02829 whole entry): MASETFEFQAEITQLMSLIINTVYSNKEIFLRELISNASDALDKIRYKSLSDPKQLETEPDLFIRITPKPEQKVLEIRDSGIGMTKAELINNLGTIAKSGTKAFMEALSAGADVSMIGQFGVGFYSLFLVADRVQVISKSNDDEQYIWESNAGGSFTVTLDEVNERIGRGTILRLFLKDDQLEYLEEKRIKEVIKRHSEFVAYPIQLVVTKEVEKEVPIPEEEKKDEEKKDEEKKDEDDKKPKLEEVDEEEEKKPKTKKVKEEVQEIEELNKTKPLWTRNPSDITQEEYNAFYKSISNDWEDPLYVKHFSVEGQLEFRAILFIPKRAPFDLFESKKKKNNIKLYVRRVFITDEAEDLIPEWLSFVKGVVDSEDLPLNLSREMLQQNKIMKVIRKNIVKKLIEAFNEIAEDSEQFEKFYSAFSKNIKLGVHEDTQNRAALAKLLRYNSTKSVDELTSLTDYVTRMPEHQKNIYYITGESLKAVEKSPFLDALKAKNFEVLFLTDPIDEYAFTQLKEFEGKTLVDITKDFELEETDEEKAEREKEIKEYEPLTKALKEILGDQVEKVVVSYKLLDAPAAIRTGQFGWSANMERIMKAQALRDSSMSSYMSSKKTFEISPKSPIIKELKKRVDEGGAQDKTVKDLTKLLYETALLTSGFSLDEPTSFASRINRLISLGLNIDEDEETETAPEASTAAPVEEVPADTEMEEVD
Experimental: The biochemical activity of the compounds can in particular be evaluated by means of the “Hsp82/ATPase” test described below:
The inorganic phosphate released during the hydrolysis of ATP by the ATPase activity of Hsp82 is quantified by the malachite green method. In the presence of this reagent, formation of the inorganic phosphate-molybdate-malachite green complex, which absorbs at a wavelength of 620 nm, occurs.
The products to be evaluated are incubated in a reaction volume of 30 μl, in the presence of 1 μM Hsp82 and of 250 μM of substrate (ATP) in a buffer composed of 50 mM Hepes-NaOH (pH 7.5), 1 mM DTT, 5 mM MgCl2 and 50 mM KCl at 37° C. for 60 min. In parallel, an inorganic phosphate range of between 1 and 40 μM is made up in the same buffer. […] The inorganic phosphate concentration of each sample is then calculated from the standard curve. The ATPase activity of Hsp82 is expressed as concentration of inorganic phosphate produced in 60 minutes. The effect of the various products tested is expressed as percentage inhibition of the ATPase activity.
The formation of ADP due to the ATPase activity of Hsp82 was used to develop another method for evaluating the enzyme activity of this enzyme by application of an enzymatic coupling system involving pyruvate kinase (PK) and lactate dehydrogenase (LDH). In this kinetic-type spectrophotometric method, PK catalyses the formation of ATP and of pyruvate from phosphoenol pyruvate (PEP) and the ADP produced by Hsp82. The pyruvate formed, which is a substrate for LDH, is subsequently converted to lactate in the presence of NADH. In this case, the decrease in the NADH concentration, measured through the decrease in absorbance at the wavelength of 340 nm, is proportional to the concentration of ADP produced by Hsp82.
The products tested are incubated in a reaction volume of 100 μl of buffer composed of 100 mM Hepes-NaOH (pH 7.5), 5 mM MgCl2, 1 mM DTT, 150 mM KCl, 0.3 mM NADH, 2.5 mM PEP and 250 μM ATP. This mixture is preincubated at 37° C. for 30 minutes before the addition of 3.77 units of LDH and 3.77 units of PK. The reaction is initiated by addition of the product to be evaluated, in varying concentrations, and of Hsp82, at the concentration of 1 μM. The enzymatic activity of Hsp82 is then measured continuously, in a microplate reader, at 37° C., at the wavelength of 340 nm. The initial rate of the reaction is obtained by measuring the slope of the tangent to the origin of the curve recorded. The enzymatic activity is expressed in μM of ADP formed per minute. The effect of the various products tested is expressed as 50% inhibitory concentration (1050) with respect to the ATPase activity, according to the codification below: […]

| melting point | IC50 [1] | IC50 (Hsp82) | Compound |
| --- | --- | --- | --- |
| 170 to 172 °C | < 1000 nM | – | Cc1nn(-c2ccc(C(N)=O)c(NC3CC4CCC3O4)c2)c2cccc(-c3cnc4ccccc4c3)c12 (stereo not drawn) [Example 14, 4-(3-methyl-4-quinolin-3-ylindazol-1-yl)-2-[exo-(7-oxabicyclo[2.2.1]hept-2-yl)amino]benzamide] |
| – | < 1000 nM | < 1000 nM | Cc1nn(-c2ccc(C(N)=O)c(N[C@H]3CC[C@H](O)CC3)c2)c2cccc(-c3nc4ccc(F)cc4[nH]3)c12 [Example 12, 4-[4-(6-fluoro-1H-benzimidazol-2-yl)-3-methylindazol-1-yl]-2-(trans-4-hydroxycyclohexylamino)benzamide] |
